The values below come from US8735152B2, “Methods for inducing cell death in pluripotent stem cells and differentiated cells other than cardiac myocytes” (Daiichi Sankyo Company, Limited, priority 2009, dated 2014).

In data set [1] the test system is human embryonic stem cells. The experiment in a line: Cell death inducing effect on human embryonic stem cells (TMRM FACS, 5-day adherent culture). The class given is cell-based. Particulars: 0.45 M, 2 hours. The procedure:
The human embryonic stem cells were obtained from Stem Cell Research Center, Institute for Frontier Medical Sciences, Kyoto University (ES cell center sponsored by the National Bio-Resource Project) (Suemori, H et al., Biochem. Biophys. Res. Commun., Vol. 345, 2006, pp. 926-932). The cells were cultured basically in accordance with the method described in this document. To be more specific, the human embryonic stem cells were cultured to maintain their undifferentiated state using mouse embryonic fibroblasts (MEF) that had been inactivated for growth by treatment with mitomycin C. The culture medium of F12/DMEM (1:1) (SIGMA; Product No. D6421), supplemented with 20% KO-SERUM (GIBCO), 1.6 mM L-glutamine, 0.1 mM non-essential amino acids (MEM), 0.1 mM β-mercaptoethanol (2-ME; Sigma), 100 IU/ml penicillin, 100 μg/ml streptomycin sulfate, and recombinant human basic fibroblast growth factor (bFGF; Reprotech) was used. Upon passaging, the cells were treated with 0.1% type III collagenase (Wortington) at 37° C. for 10 minutes to separate embryonic stem cell colonies. After passaging, the cells were dispersed with each other using TE (0.25% trypsin (GIBCO) and 1 mM EDTA) and in accordance with a published document (Watanabe, K. et al., Nat. Biotechnol., 2007, 25: 681-686, Epub 2007 May 27), 10 μM of a ROCK inhibitor (Y27632) was added to suppress cell death. At the same time, the mitochondria in the live cells were stained with 50 nM TMRM. Part of the stained cells were treated with an α-MEM culture medium containing 0.45 M mannitol (approximately equivalent to 720 mOsm/kg) for 2, 3 or 4 hours and three samples were prepared from these cells; the rest of the stained cells were treated with a mannitol-free α-MEM culture medium for 2 hours and a sample was prepared from these cells as a control. In the control, cells were aggregated with each other to make masses, so before FACS analysis, the treated groups and the control were given another treatment with trypsin and EDTA to disperse the cells. The cells treated with mannitol for 2, 3 or 4 hours and the control cells were analyzed by FACS for the level of mitochondrial membrane potential on the basis of the fluorescent intensity of TMRM to check the state of survival of the stem cells; the results are shown in FIG. 7. […] In addition, the TMRM-stained cells were photographed, both for the case of 2-h treatment with mannitol and for the control (FIG. 8)). […] Changes in the mitochondrial membrane potential were observed using the experimental technique of Example 5, provided that the human embryonic stem cells were treated not with mannitol, but with 0.45 M of various other saccharides (sugar alcohols: sorbitol and xylitol; sugars: sucrose and glucose; betaines: trimethylglycine) (approximately equivalent to 750-780 mOsm/kg) for 2 hours.

A short description of data set [2]: Saccharide concentration and osmotic pressure of hypertonic solutions (measured values). The class given is physicochemical. The protocol: When the hypertonic solution having an osmotic pressure of 370 mOsm/kg or higher is prepared by adding a saccharide to the culture medium, the method of the present invention is characterized in that the hypertonic solution contains the saccharide in 0.1-1 M (mol/L), preferably 0.1-0.6 M (mol/L). The relation between the concentration of saccharide (mol/L) and the osmotic pressure (mOsm/kg) can be approximated by a substantially straight line; a hypertonic solution containing 0.1 M saccharide corresponds to one having an osmotic pressure of approximately 370 mOsm/kg and a hypertonic solution containing 1 M saccharide corresponds to one having an osmotic pressure of approximately 1300-1600 mOsm/kg.
Hypertonic solutions were prepared using various saccharides and the relation between the saccharide concentration and the osmotic pressure is shown in the following table for typical saccharides.

For data set [3], the system named is human embryonic stem cell-derived embryoid bodies. Put plainly: Cell death inducing effect on residual stem cells in human embryonic stem cell-derived embryoid bodies and enrichment of cardiomyocytes. The class given is cell-based. Particulars: 0.45 M or 0.6 M. The procedure:
After passaging, human embryonic stem cells were subjected to suspension culture in a culture medium [α-MEM (minimum essential medium) (SIGMA), supplemented with 10% FBS (EQUITEC BIO), 100 units/ml penicillin, and 50 μg/ml streptomycin (GIBCO)] to induce formation of embryoid bodies. At 14-18 days after the start of differentiation (the start of suspension culture), autonomously pulsating cells started to differentiate, which was confirmed in a separate step that they were cardiomyocytes.
The embryoid bodies still maintained an autonomously pulsating ability after the passage of 3 months from the start of differentiation. They were partially treated with 0.1% collagenase (Wortington) and 0.1% trypsin (DIFCO) to be dispersed as fine cell masses. The cell masses were divided into two groups; one group was treated with 0.45 M mannitol (approximately equivalent to 720 mOsm/kg) for 2 hours, and the other group (control) was not treated with mannitol but treated with the same amount of a solution having the physiological osmotic pressure, Ads buffer (116.4 mM NaCl, 5.4 mM KCl, 5.6 mM dextrose, 10.9 mM NaH2PO4, 405.7 μM MgSO4, 20 mM Hepes, pH 7.3) for 2 hours. After the treatment, both cell groups were subjected to adherent culture for 3 days in a DMEM solution supplemented with 10% fetal calf serum.
The mannitol-treated cells and the control cells were analyzed in accordance with the experimental procedure of Example 1 using a mouse anti-Oct-3/4 monoclonal antibody (No. 084720 of BD Transduction Laboratories) and a goat anti-Nkx 2.5 antibody (No. N-19 of Santacruz) as primary antibodies, for the expression of the Oct-3/4 protein which was both a marker of embryonic stem cells and an intranuclear transcription factor, and for the expression of the Nkx 2.5 protein which was both a cardiomyocyte marker and an intranuclear transcription factor, respectively. The results for the control group, one of the two divided samples, are shown in FIG. 10 and the results for the test group subjected to 2-hr treatment with mannitol are shown in FIG. 11. The upper panels of FIG. 10 show the results of cardiomyocytes and the lower panels show the results of embryonic stem cells.
The embryoid bodies still maintained an autonomously pulsating ability after the passage of 3 months from the start of differentiation. They were partially treated with 0.1% collagenase (Wortington) and 0.1% trypsin (DIFCO) to be dispersed as fine cell masses. The cell masses were divided into two groups; one group was treated with saccharides (sugar alcohols: sorbitol, xylitol, and glycerol; sugars: sucrose and glucose; betaines: trimethylglycine) for 12 hours in an amount of 0.45 M (approximately equivalent to 700-780 mOsm/kg) or 0.6 M (approximately equivalent to 850-1000 mOsm/kg), and the other group (control) was not treated with those saccharides but treated with the same amount of a solution having the physiological osmotic pressure, Ads buffer (116.4 mM NaCl, 5.4 mM KCl, 5.6 mM dextrose, 10.9 mM NaH2PO4, 405.7 μM MgSO4, 20 mM Hepes, pH 7.3) for 2 hours. After the treatment, both cell groups were cultured for 12 hours in a DMEM solution supplemented with 10% fetal calf serum.
Samples of differentiated cells derived from human embryonic stem cells, as treated with 0.45 M glycerol (approximately equivalent to 710 mOsm/kg) or 0.6 M glycerol (approximately equivalent to 870 mOsm/kg), were examined for their morphology under the culture conditions. […] The cell death inducing effect was noticeable when the cells were exposed to glycerol for 10 hours and longer (FIG. 14).

Where [4] appears, read: saccharide concentration 0.45 M in culture medium.
[5] abbreviates: saccharide concentration 0.6 M in culture medium.
The mark [6] stands for this setting: saccharide concentration 0.9 M in culture medium.

In the case of `OC[C@@H](O)[C@@H](O)[C@H](O)[C@@H](O)CO` [sorbitol], the “Mitochondrial membrane potential (TMRM fluorescence, FACS)” value in data set [1] is reported as “all of the cells treated with the above-mentioned saccharides for 2 hours had lost membrane potential”. Further, the Osmotic pressure amounted to 748 mOsm/kg in data set [2] (setting [4]), 922 mOsm/kg in data set [2] (setting [5]) and 1289 mOsm/kg in data set [2] (setting [6]).
On to `OC[C@H]1O[C@@](CO)(O[C@H]2O[C@H](CO)[C@@H](O)[C@H](O)[C@H]2O)[C@@H](O)[C@@H]1O` [sucrose], for which the “Mitochondrial membrane potential (TMRM fluorescence, FACS)” value in data set [1] is given as “all of the cells treated with the above-mentioned saccharides for 2 hours had lost membrane potential”. Also, the figures for the Osmotic pressure in data set [2] (setting [4]), in data set [2] (setting [5]) and in data set [2] (setting [6]) were 779 mOsm/kg, 988 mOsm/kg and 1496 mOsm/kg, respectively.
The matching figures for `OC[C@@H](O)[C@H](O)[C@@H](O)CO` [xylitol]: “all of the cells treated with the above-mentioned saccharides for 2 hours had lost membrane potential”, 779 mOsm/kg, 940 mOsm/kg and 1230 mOsm/kg.
The matching figures for `C[N+](C)(C)CC(=O)[O-]` [trimethylglycine]: “all of the cells treated with the above-mentioned saccharides for 2 hours had lost membrane potential”, 763 mOsm/kg, 965 mOsm/kg and 1421 mOsm/kg.
Take `OCC(O)CO` [glycerol]: the “Exposure time at which the cell death inducing effect was noticeable” value in data set [3] is ≥ 10 h. Besides, the “State of differentiated cells other than cardiomyocytes (morphology)” value in data set [3] is “almost all of the differentiated cells other than cardiomyocytes had been dead”. Further, the Osmotic pressure was ~710 mOsm/kg in data set [2] (setting [4]); 706 mOsm/kg in data set [2] (saccharide concentration 0.45 M in culture medium, listed as Glycerol); ~870 mOsm/kg in data set [2] (setting [5]); 869 mOsm/kg in data set [2] (saccharide concentration 0.6 M in culture medium, listed as Glycerol); 1232 mOsm/kg in data set [2] (setting [6]).
